Assay [1] addresses T1, SARS-CoV-2 PLpro (nsp3 1564–1878) (Severe acute respiratory syndrome coronavirus 2, UniProt P0DTD1). Description: biochemical. Also noted: FRET-quenched peptide (Pro3) cleavage by PLpro, 10 min pre-incubation, slope over 20 min, normalised to no-compound control. The note with it: low concentration screen, read-out: % of control remaining.
In assay [2] the target is T1, SARS-CoV-2 PLpro (nsp3 1564–1878). Kind of assay: biochemical. Details: FRET-quenched peptide (Pro3) cleavage by PLpro, 10 min pre-incubation, slope over 20 min, normalised to no-compound control. The note with it: high concentration screen, read-out: % of control remaining.

Counter-ions that a name gives are not always drawn. Like-named read-outs stand apart in the source and are kept apart here.

For the molecule `CC(C)Oc1ccc(-c2nc(-c3cccc4c3CC[C@@H]4NCCO)no2)cc1C#N` [Ozanimod], the remaining activity at 1.25 µM in assay [1] (Well no.=7422) was 104%. Moreover, the remaining activity at 3.75 µM in assay [2] (Well no.=7422) was found to be 106%.
As for `Nc1ncnc2c1ncn2[C@@H]1O[C@H](COP(=O)(O)OP(=O)(O)OP(=O)(O)OP(=O)(O)OC[C@H]2O[C@@H](n3cnc4c(N)ncnc43)[C@H](O)[C@@H]2O)[C@@H](O)[C@H]1O` [P1,P4-Di(adenosine-5')tetraphosphate triammonium], the remaining activity at 1.25 µM in assay [1] (Well no.=731) stood at 96.1%. The remaining activity at 3.75 µM in assay [2] (Well no.=731) is 94.1%.
Regarding `O=[N+]([O-])c1cn2c(n1)OC[C@@H](OCc1ccc(OC(F)(F)F)cc1)C2` [PA-824], the remaining activity at 1.25 µM in assay [1] (Well no.=4709) came out at 104%. In addition, the remaining activity at 3.75 µM in assay [2] (Well no.=4709) was determined as 104%.
`C=CCc1cccc(/C=N/NC(=O)CN2CCN(Cc3ccccc3)CC2)c1O` [PAC-1]: the remaining activity at 1.25 µM was found to be 103% in assay [1] (Well no.=4697) and 107% in assay [1] (Well no.=6200). Also, the figures for the remaining activity at 3.75 µM in assay [2] (Well no.=4697) and in assay [2] (Well no.=6200) were 101% and 93.7%, respectively.
Turning to `CCCCCCCCCCCCCCCC(=O)C(F)(F)F` [PACOCF3], in assay [1] (Well no.=4390), the remaining activity at 1.25 µM stood at 102%. The remaining activity at 3.75 µM in assay [2] (Well no.=4390) amounted to 100%.
Take `CCCCCCCCCCCCCCCCOC[C@@H](COP(=O)([O-])OCC[N+](C)(C)C)OC(C)=O` [PAF C16]: the remaining activity at 1.25 µM in assay [1] (Well no.=4445) was 103%. Further, the remaining activity at 3.75 µM in assay [2] (Well no.=4445) was 98.2%.
In the case of `CCCCCCCC/C=C\CCCCCCCCOC[C@H](COP(=O)([O-])OCC[N+](C)(C)C)OC(C)=O` [PAF C18:1], the remaining activity at 1.25 µM in assay [1] (Well no.=4453) stood at 99.9%. Moreover, the remaining activity at 3.75 µM in assay [2] (Well no.=4453) was determined as 99.9%.
In the case of `CN(C)Cc1c(C(=O)NCCOc2ccc(C(=O)NO)cc2)oc2ccccc12` [PCI-24781], the remaining activity at 1.25 µM in assay [1] (Well no.=4840) was determined as 101%. Also, in assay [2] (Well no.=4840), the remaining activity at 3.75 µM turned out to be 100%.
On to `N=C(N)c1ccc2nc(-c3cc(CC(=O)N[C@@H](CC(=O)O)C(=O)O)cc(-c4cc(S(N)(=O)=O)ccc4O)c3O)[nH]c2c1` [PCI-27483], for which the remaining activity at 1.25 µM in assay [1] (Well no.=8564) stood at 104%. In addition, in assay [2] (Well no.=8564), the remaining activity at 3.75 µM amounted to 102%.
As for `C=CC(=O)N1CCC[C@@H](n2nc(-c3ccc(Oc4ccccc4)cc3)c3c(N)ncnc32)C1` [PCI-32765 (Ibrutinib)], the remaining activity at 1.25 µM in assay [1] (Well no.=4649) worked out at 96%. Also, the remaining activity at 3.75 µM in assay [2] (Well no.=4649) came out at 88.8%.
For `COc1ccc(Cn2ccc3ccc(C(=O)NO)cc32)cc1` [PCI-34051], the remaining activity at 1.25 µM in assay [1] (Well no.=4710) was 107%. For the same molecule, the remaining activity at 3.75 µM in assay [2] (Well no.=4710) worked out at 103%.
Consider `O=C(O)c1ccccn1` [PCL 016], for which, in assay [1] (Well no.=7107), the remaining activity at 1.25 µM worked out at 99.9%. In assay [2] (Well no.=7107), the remaining activity at 3.75 µM came to 98.2%.
Turning to `COc1cc2ncnc(Nc3cccc(Br)c3)c2cc1OC` [PD153035 HCl], the remaining activity at 1.25 µM in assay [1] (Well no.=4627) was determined as 104%. In addition, in assay [2] (Well no.=4627), the remaining activity at 3.75 µM worked out at 105%.
With `C=CC(=O)Nc1ccc2ncnc(Nc3cccc(Br)c3)c2c1` [PD168393], the remaining activity at 1.25 µM in assay [1] (Well no.=4750) was 105%. In assay [2] (Well no.=4750), the remaining activity at 3.75 µM was determined as 104%.
Regarding `CCN(CC)CCCCNc1ncc2cc(-c3cc(OC)cc(OC)c3)c(NC(=O)NC(C)(C)C)nc2n1` [PD173074], in assay [1] (Well no.=4767), the remaining activity at 1.25 µM was 104%. In addition, in assay [2] (Well no.=4767), the remaining activity at 3.75 µM amounted to 108%.
As for `Cn1c(=O)c(-c2c(Cl)cccc2Cl)cc2cnc(Nc3ccc(N4CCOCC4)cc3)nc21` [PD173952], the remaining activity at 1.25 µM in assay [1] (Well no.=5415) was 103%. Moreover, the remaining activity at 3.75 µM in assay [2] (Well no.=5415) is 108%.
As for `Cn1c(=O)c(-c2c(Cl)cccc2Cl)cc2cnc(Nc3cccc(C(=O)O)c3)nc21` [PD173955-Analog1], the remaining activity at 1.25 µM in assay [1] (Well no.=2849) was 101%. The remaining activity at 3.75 µM in assay [2] (Well no.=2849) turned out to be 99.7%.
On to `CSc1cccc(Nc2ncc3cc(-c4c(Cl)cccc4Cl)c(=O)n(C)c3n2)c1` [PD173955], for which the remaining activity at 1.25 µM in assay [1] (Well no.=2985) was 102%. Moreover, the remaining activity at 3.75 µM in assay [2] (Well no.=2985) was 102%.
On to `COc1cccc(-c2cc(=O)c3ccccc3o2)c1N` [PD 98,059], for which the remaining activity at 1.25 µM in assay [1] (Well no.=1457) came to 94.9%. Moreover, the remaining activity at 3.75 µM in assay [2] (Well no.=1457) came out at 95.8%.
With `Cc1cccc(C(=O)NCN2CCN(c3ccccc3C#N)CC2)c1` [PD 168,077 maleate], in assay [1] (Well no.=1171), the remaining activity at 1.25 µM is 106%. Further, in assay [2] (Well no.=1171), the remaining activity at 3.75 µM stood at 107%.
In the case of `N=C1Sc2ccccc2C2=NCCCN12` [PD 404,182], the remaining activity at 1.25 µM in assay [1] (Well no.=1096) came to 98.8%. Further, in assay [2] (Well no.=1096), the remaining activity at 3.75 µM turned out to be 101%.
For the molecule `COc1cccc(-c2cc(=O)c3ccccc3o2)c1N` [PD 98059 - 2-(2-Amino-3-methoxyphenyl)-4H-1-benzopyran-4-one], the remaining activity at 1.25 µM in assay [1] (Well no.=2348) was found to be 98.4%. Besides, the remaining activity at 3.75 µM in assay [2] (Well no.=2348) was determined as 96.8%.
For `COc1cccc(-c2cc(=O)c3ccccc3o2)c1N` [PD 98059], the remaining activity at 1.25 µM in assay [1] (Well no.=2600) was 94.8%. For the same molecule, in assay [2] (Well no.=2600), the remaining activity at 3.75 µM is 92%.
Regarding `OC[C@H]1O[C@@H](n2cnc3c(N[C@@H]4CCc5ccccc54)ncnc32)[C@H](O)[C@@H]1O` [PD 117519], the remaining activity at 1.25 µM came to 96.4% in assay [1] (Well no.=7763) and 106% in assay [1] (Well no.=8169). In addition, the results for the remaining activity at 3.75 µM in assay [2] (Well no.=7763) and in assay [2] (Well no.=8169) were 102% and 110%, respectively.
Turning to `Cc1cc(Cn2cnc3c2C[C@@H](C(=O)O)N(C(=O)C(c2ccccc2)c2ccccc2)C3)ccc1N(C)C` [PD 123319 (ditrifluoroacetate)], the remaining activity at 1.25 µM came out at 97.1% in assay [1] (Well no.=7145) and 94.2% in assay [1] (Well no.=8406). Moreover, the values for the remaining activity at 3.75 µM in assay [2] (Well no.=7145) and in assay [2] (Well no.=8406) were 96.9% and 92.3%, respectively.
With `O=C(O)/C(S)=C/c1ccc(I)cc1` [PD 150606], the remaining activity at 1.25 µM in assay [1] (Well no.=5432) came out at 93.8%. Besides, the remaining activity at 3.75 µM in assay [2] (Well no.=5432) was 97.7%.
On to `O=C(O)/C(S)=C/c1c[nH]c2ccc(F)cc12` [PD 151746], for which the remaining activity at 1.25 µM in assay [1] (Well no.=8812) was 92.8%. Besides, the remaining activity at 3.75 µM in assay [2] (Well no.=8812) worked out at 92.9%.
In the case of `CNc1cc2c(Nc3cccc(Br)c3)ncnc2cn1` [PD 158780], the remaining activity at 1.25 µM in assay [1] (Well no.=2499) was 99.1%. Further, in assay [2] (Well no.=2499), the remaining activity at 3.75 µM worked out at 99.3%.
Regarding `CCC(=O)Nc1ccc2ncnc(Nc3cccc(Br)c3)c2c1` [PD 174265], in assay [1] (Well no.=2501), the remaining activity at 1.25 µM turned out to be 101%. In addition, the remaining activity at 3.75 µM in assay [2] (Well no.=2501) turned out to be 98.5%.
In the case of `Cc1cc(I)ccc1Nc1c(C(=O)NOCC2CC2)cc(F)c(F)c1F` [PD 198306 - N-(Cyclopropylmethoxy)-3,4,5-trifluoro-2-[(4-iodo-2-methylphenyl)amino]-benzamide], in assay [1] (Well no.=2582), the remaining activity at 1.25 µM was 92.1%. In assay [2] (Well no.=2582), the remaining activity at 3.75 µM was determined as 87.7%.
For `CC(=O)c1c(C)c2cnc(Nc3ccc(N4CCNCC4)cn3)nc2n(C2CCCC2)c1=O` [PD 0332991 (Palbociclib) HCl], the remaining activity at 1.25 µM in assay [1] (Well no.=4667) was 99%. The remaining activity at 3.75 µM in assay [2] (Well no.=4667) was found to be 98%.

The values above are taken from article PMC8286840, “Identifying SARS-CoV-2 antiviral compounds by screening for small molecule inhibitors of Nsp3 papain-like protease” (Biochemical Journal, 2021).
